Results: paper PMC2580030 (PLoS ONE, 2008)

Molecular target: T1, HLA-DR1 (Homo sapiens, UniProt P01903+P01911, A100R/D57E/F55L/F60I/F76Y/I96L/L162R/M171V/P40L/Q125E/R42F/V115G/Y59C)
T1 construct: made in house; host or cells: stably transfected Drosophila S2 insect cell lines (DR1 and DM separately)
Format: binding

Sequence: PVSKMRMATPLLMQA [CLIP, residues 87–101 of the CLIP peptide]
- largest CLIP/DR1 complex dissociation measured: ~55%
- t 1/2 of CLIP dissociation from DR1: approximately 80 min
